According to US11564948B2, “Therapeutic methods using erythrocytes” (Sangui Bio Pty Ltd, priority 2015, dated 2023):

Tested on: MIF
Assay: RBCs or RBC ghosts cultured in plasma with heparin or EDTA, MIF ELISA (Example 1)
Format: cell-based, human
Settings: addition of EDTA to the cell suspensions, compared with heparin treatment; FIG. 2
Procedure: To determine if the presence of anticoagulants alter the capacity for protein binding to red blood cells, these cells were incubated in plasma with or without heparin or EDTA. Whole blood from healthy volunteers was collected into EDTA vacutainers (3 mg/mL). Plasma was collected from blood collected into hepain and citrate vacutainers. […] The ghosts were then isolated by centrifugation (16,000 g, 20 minutes) and were resuspended in PBS. […] The red blood cells or ghosts were then cultured for 0, 1, or 18 hours at 37° C. As controls, EDTA plasma containing heparin or EDTA were culture under the same conditions. Following incubation, the cell free supernatants was collected and stored at −80° C. Prior to analysis, samples were subjected to ×3 freeze-thaw cycles. MIF concentration of the samples was quantified using a MIF ELISA.

## O=C(O)CN(CCN(CC(=O)O)CC(=O)O)CC(=O)O [EDTA, ethylenediaminetetraacetic acid]
  MIF in the RBC lysates and ghosts 'lysates': substantially less
